Where “and” joins values, the source holds several entries; their conditions need not be identical. Equal entries are not always repeated.
Key:
Genome polyprotein [1] = target: T1, Genome polyprotein (dengue virus type 2, UniProt P29990); format: functional, Thailand/16681/1984
Genome polyprotein [2] = target: T1, Genome polyprotein; format: functional, Thailand/16681/1984; remark: listed apart in the source

T1 sequence (P29990 1346-1475 limits assumed): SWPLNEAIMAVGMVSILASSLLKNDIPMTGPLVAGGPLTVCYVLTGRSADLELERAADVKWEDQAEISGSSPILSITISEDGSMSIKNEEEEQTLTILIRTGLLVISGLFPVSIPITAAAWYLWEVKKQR
T1 sequence (P29990 1476-2093 limits assumed): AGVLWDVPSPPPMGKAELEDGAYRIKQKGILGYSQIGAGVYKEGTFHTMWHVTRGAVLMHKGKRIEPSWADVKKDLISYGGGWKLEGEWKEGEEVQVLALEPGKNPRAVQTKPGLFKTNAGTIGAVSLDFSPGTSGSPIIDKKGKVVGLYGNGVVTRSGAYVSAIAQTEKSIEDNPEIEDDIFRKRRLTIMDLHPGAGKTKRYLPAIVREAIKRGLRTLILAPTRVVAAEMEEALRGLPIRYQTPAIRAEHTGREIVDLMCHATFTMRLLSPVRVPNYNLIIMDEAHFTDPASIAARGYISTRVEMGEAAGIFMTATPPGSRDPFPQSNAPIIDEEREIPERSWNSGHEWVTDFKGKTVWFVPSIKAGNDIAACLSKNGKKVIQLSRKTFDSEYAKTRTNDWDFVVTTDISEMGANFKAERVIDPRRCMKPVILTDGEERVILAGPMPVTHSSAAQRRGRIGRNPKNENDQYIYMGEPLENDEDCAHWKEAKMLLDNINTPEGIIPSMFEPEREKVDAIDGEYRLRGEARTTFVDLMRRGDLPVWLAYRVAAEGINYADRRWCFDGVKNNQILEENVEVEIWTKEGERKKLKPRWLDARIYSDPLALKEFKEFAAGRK

O=C(Nc1ccc2c(c1)CNC2)c1ccnc2[nH]ccc12
IC50 (Genome polyprotein [1]): > 99.5 µM | IC50 (Genome polyprotein [2]): > 100 µM

Cc1cnc([C@H]2CCCN(C(=O)Nc3ccc4c(c3)CNC4)C2)s1
IC50 (Genome polyprotein [1]): > 99.5 µM | IC50 (Genome polyprotein [2]): > 100 µM

NCc1cccc(NC(=O)[C@H](NC(=O)OCc2ccccc2)c2cccc(OC[C@H]3COCCO3)c2)c1
IC50 (Genome polyprotein [1]): > 99.5 µM | IC50 (Genome polyprotein [2]): > 100 µM

N#C[C@H](Nc1cccn(CC(=O)O)c1=O)c1cc(Cl)cc(C2CC2)c1
IC50 (Genome polyprotein [1]): > 99.5 µM | IC50 (Genome polyprotein [2]): > 100 µM

O=C(Nc1cc(Cl)cc(C(=O)NC[C@H]2C[C@@H]2C(=O)O)c1)OCc1ccccc1
IC50 (Genome polyprotein [1]): > 99.5 µM | IC50 (Genome polyprotein [2]): > 100 µM

N#Cc1ccc(C(=O)Nc2ccc3c(c2)CNC3)cc1Cl
IC50 (Genome polyprotein [1]): > 99.5 µM | IC50 (Genome polyprotein [2]): > 100 µM

CCOC(=O)[C@H]1[C@H](c2cc(Cl)cc(NC(=O)OCc3ccccc3)c2)[C@H]1c1cccc(-c2nnn[nH]2)c1
IC50 (Genome polyprotein [1]): 13.1 µM | IC50 (Genome polyprotein [2]): 13.9 µM

N#Cc1cc(Cl)cc(C(=O)Nc2cccc(-c3nnn[nH]3)c2)c1
IC50 (Genome polyprotein [1]): > 99.5 µM | IC50 (Genome polyprotein [2]): > 100 µM

O=C(Nc1ccc2c(c1)CNC2)c1cc(Cl)cc2nn(C3CCOCC3)cc12
IC50 (Genome polyprotein [1]): 90.2 µM | IC50 (Genome polyprotein [2]): > 100 µM

NCc1cccc(NC(=O)[C@H](NC(=O)OCc2ccccc2)C2CCN(C(=O)c3ccco3)CC2)c1
IC50 (Genome polyprotein [1]): > 99.5 µM | IC50 (Genome polyprotein [2]): > 100 µM

CCc1cc(C(=O)Nc2cccc(-c3nnn[nH]3)c2)nn1-c1ccccc1
IC50 (Genome polyprotein [1]): > 99.5 µM | IC50 (Genome polyprotein [2]): > 100 µM

CC(C)n1nncc1-c1cc(F)cc(C(=O)Nc2ccc3c(c2)CNC3)c1
IC50 (Genome polyprotein [1]): 89 µM | IC50 (Genome polyprotein [2]): > 100 µM

CC(C)[C@H](NC(=O)c1cc(Cl)cc(NC(=O)OCc2ccccc2)c1)c1nn[nH]n1
IC50 (Genome polyprotein [1]): > 99.5 µM | IC50 (Genome polyprotein [2]): 61.3 µM and 41.1 µM and 39.5 µM and 56.3 µM and 58.4 µM

O=C(NCC1CCNCC1)c1cc(Cl)cc2[nH]ncc12
IC50 (Genome polyprotein [1]): > 99.5 µM | IC50 (Genome polyprotein [2]): > 100 µM

NCc1cc(NC(=O)c2cc(Cl)cc(NC(=O)OCc3ccccc3)c2)cc(-c2csc(CC(=O)O)c2)c1
IC50 (Genome polyprotein [1]): 64.7 µM | IC50 (Genome polyprotein [2]): > 100 µM

C#C[C@H](Nc1cccc(C(=O)O)c1)c1cc(Cl)cc2[nH]ncc12
IC50 (Genome polyprotein [1]): > 99.5 µM | IC50 (Genome polyprotein [2]): > 100 µM

CC1=C(c2cc(F)cc(C(=O)Nc3ccc4c(c3)CNC4)c2)CCCC1
IC50 (Genome polyprotein [1]): > 99.5 µM | IC50 (Genome polyprotein [2]): > 100 µM

O=C(Nc1cc(Cl)cc(-c2cc(NCc3ccccc3)c(C(=O)O)cn2)c1)OCc1ccccc1
IC50 (Genome polyprotein [1]): 7.58 µM | IC50 (Genome polyprotein [2]): 5.35 µM

Cc1c(C(=O)Nc2cc(-c3cccnc3)ccn2)cc(C2CCC2)n1C
IC50 (Genome polyprotein [1]): > 99.5 µM | IC50 (Genome polyprotein [2]): > 100 µM

C#C[C@H](Nc1ccc2c(c1)CNC2)c1cccc2[nH]c(=O)[nH]c12
IC50 (Genome polyprotein [1]): > 99.5 µM | IC50 (Genome polyprotein [2]): > 100 µM

CCCN1C(=O)[C@](C#N)(Nc2cccc(-c3nn[nH]n3)c2)c2cc(Cl)ccc21
IC50 (Genome polyprotein [1]): > 99.5 µM | IC50 (Genome polyprotein [2]): > 100 µM

O=C(Nc1ccc2c(c1)CNC2)c1cc(Cl)ccc1-n1cncn1
IC50 (Genome polyprotein [1]): > 99.5 µM | IC50 (Genome polyprotein [2]): > 100 µM

O=C(Nc1ccc2c(c1)CNC2)c1cc(F)cc2[nH]c(-c3cnc(C4CC4)o3)nc12
IC50 (Genome polyprotein [1]): > 49.7 µM | IC50 (Genome polyprotein [2]): > 100 µM

N#Cc1cc(Cl)cc(S(=O)(=O)Nc2cccc(-c3nnn[nH]3)c2)c1
IC50 (Genome polyprotein [1]): > 99.5 µM | IC50 (Genome polyprotein [2]): > 100 µM

N#Cc1c[nH]c2c(C(=O)Nc3ccc4c(c3)CNC4)cccc12
IC50 (Genome polyprotein [1]): > 99.5 µM | IC50 (Genome polyprotein [2]): > 100 µM

NC[C@H]1CC[C@@H](NC(=O)c2cc(Cl)cc3[nH]ncc23)CC1
IC50 (Genome polyprotein [1]): > 99.5 µM | IC50 (Genome polyprotein [2]): > 100 µM

COC[C@H](NC(=O)c1cc(Cl)cc(NC(=O)OCc2ccccc2)c1)c1nnn[nH]1
IC50 (Genome polyprotein [1]): > 99.5 µM | IC50 (Genome polyprotein [2]): > 100 µM

NCc1ccc(-c2csc3cc(C(=O)Nc4ccc5c(c4)CNC5)ccc23)cc1
IC50 (Genome polyprotein [1]): 28.4 µM and 18.3 µM | IC50 (Genome polyprotein [2]): > 100 µM

CS(=O)(=O)Nc1cc(Cl)cc(C(=O)Nc2cccc(CN)c2)c1
IC50 (Genome polyprotein [1]): > 99.5 µM | IC50 (Genome polyprotein [2]): > 100 µM

Cc1nc2cc(Cl)ccc2cc1C(=O)Nc1ccc2c(c1)CNC2
IC50 (Genome polyprotein [1]): > 99.5 µM | IC50 (Genome polyprotein [2]): > 100 µM

N[C@@H]1CC[C@H](NC(=O)c2cc(Cl)cc(NC(=O)OCc3ccccc3)c2)C1
IC50 (Genome polyprotein [1]): > 99.5 µM | IC50 (Genome polyprotein [2]): > 100 µM

C=Cc1cc2c(cc1NC(=O)c1cc(F)cc3[nH]ncc13)CNC2
IC50 (Genome polyprotein [1]): 52.7 µM | IC50 (Genome polyprotein [2]): 32.8 µM

COc1ccc(-c2nc3c(C(=O)Nc4ccc5c(c4)CNC5)cc(Cl)cc3[nH]2)cc1
IC50 (Genome polyprotein [1]): 21.5 µM | IC50 (Genome polyprotein [2]): 39.5 µM and 40.3 µM

CC(C)CC(=O)N1CCC([C@H](NC(=O)OCc2ccccc2)C(=O)Nc2cccc(CN)c2)CC1
IC50 (Genome polyprotein [1]): > 99.5 µM | IC50 (Genome polyprotein [2]): > 100 µM

CC(C)(C)OC(=O)N1Cc2cc(NC(=O)c3cc(Cl)cc4c3cnn4[C@@H]3CCCCO3)ccc2[C@H]1CO
IC50 (Genome polyprotein [1]): > 99.5 µM | IC50 (Genome polyprotein [2]): > 100 µM

Clc1ccc2[nH]cc(Cc3cccc(-c4nn[nH]n4)c3)c2c1
IC50 (Genome polyprotein [1]): 63.1 µM | IC50 (Genome polyprotein [2]): 22.4 µM

C#Cc1cc(CN)ccc1NS(=O)(=O)c1ccc(Oc2ccccc2Cl)cc1
IC50 (Genome polyprotein [1]): > 99.5 µM | IC50 (Genome polyprotein [2]): > 100 µM

O=C(Nc1ccc2c(c1)CNC2)c1ccc2ncccc2c1
IC50 (Genome polyprotein [1]): > 99.5 µM | IC50 (Genome polyprotein [2]): > 100 µM

NCc1cccc(NC(=O)[C@@H](NC(=O)OCc2ccccc2)C2CCN(S(=O)(=O)Cc3ncon3)CC2)c1
IC50 (Genome polyprotein [1]): > 99.5 µM | IC50 (Genome polyprotein [2]): > 100 µM

C[C@H](NC(=O)c1cccc2c1CC(=O)N2)c1ccncc1F
IC50 (Genome polyprotein [1]): > 99.5 µM | IC50 (Genome polyprotein [2]): > 100 µM

NCc1ccc(C(=O)O)c(NC(=O)c2cc(Cl)cc(NC(=O)OCc3ccccc3)c2)c1
IC50 (Genome polyprotein [1]): > 99.5 µM | IC50 (Genome polyprotein [2]): > 100 µM

COC(=O)[C@]12CC[C@](C(=O)Nc3cccc(CN)c3)(COC1)C2
IC50 (Genome polyprotein [1]): > 99.5 µM | IC50 (Genome polyprotein [2]): > 100 µM

CS(=O)(=O)NC(=O)C[C@H]1NCc2cc(NC(=O)c3cc(Cl)cc4[nH]ncc34)ccc21
IC50 (Genome polyprotein [1]): > 296 µM | IC50 (Genome polyprotein [2]): > 300 µM

CCS(=O)(=O)c1ccc(Cl)cc1C(=O)Nc1ccc2c(c1)CNC2
IC50 (Genome polyprotein [1]): > 99.5 µM | IC50 (Genome polyprotein [2]): > 100 µM

Cc1c(C(=O)Nc2ccc3c(c2)C[C@H](C(N)=O)O3)cc(C2CC2)n1C
IC50 (Genome polyprotein [1]): > 99.5 µM | IC50 (Genome polyprotein [2]): > 100 µM

NCc1cccc(NC(=O)[C@@H]2CCCCN2)c1
IC50 (Genome polyprotein [1]): > 99.5 µM | IC50 (Genome polyprotein [2]): > 100 µM

C[C@H](NC(=O)c1cccc2c1CC(=O)N2)c1cccc(S(C)(=O)=O)c1
IC50 (Genome polyprotein [1]): > 99.5 µM | IC50 (Genome polyprotein [2]): > 100 µM

O=C(Nc1cc(Cl)cc(C(=O)Nc2ccc(S(=O)(=O)N3CCNCC3)cc2)c1)OCc1ccccc1
IC50 (Genome polyprotein [1]): > 99.5 µM | IC50 (Genome polyprotein [2]): > 100 µM

NCc1cc(NC(=O)c2cc(Cl)cc(NC(=O)OCc3ccccc3)c2)cc([C@@H]2C[C@H]2C(=O)O)c1
IC50 (Genome polyprotein [1]): > 99.5 µM | IC50 (Genome polyprotein [2]): > 100 µM

NCc1cccc(NC(=O)[C@@H](NC(=O)OCc2ccccc2)C2CCN(S(=O)(=O)Cc3cscn3)CC2)c1
IC50 (Genome polyprotein [1]): > 99.5 µM | IC50 (Genome polyprotein [2]): > 100 µM

Cc1cnnc(C(=O)Nc2cccc(CN)c2)c1
IC50 (Genome polyprotein [1]): > 99.5 µM | IC50 (Genome polyprotein [2]): > 100 µM

NCc1cccc(NC(=O)C2CCNCC2)c1
IC50 (Genome polyprotein [1]): > 99.5 µM | IC50 (Genome polyprotein [2]): > 100 µM

NCCCc1ccccc1NC(=O)c1cc(Cl)cc(NC(=O)OCc2ccccc2)c1
IC50 (Genome polyprotein [1]): > 99.5 µM | IC50 (Genome polyprotein [2]): > 100 µM

CCn1c(=O)c(N2CC[C@H](CO)C2)nc2ccc(C(=O)NS(C)(=O)=O)cc21
IC50 (Genome polyprotein [1]): > 99.5 µM | IC50 (Genome polyprotein [2]): > 100 µM

NCc1cccc(N[C@H](C#CCO)c2cc(Cl)cc(NC(=O)OCc3ccccc3)c2)c1
IC50 (Genome polyprotein [1]): 93.8 µM | IC50 (Genome polyprotein [2]): > 100 µM

O=C(Nc1cc(Cl)cc(C(=O)N[C@H](c2nn[nH]n2)C2CNC2)c1)OCc1ccccc1
IC50 (Genome polyprotein [1]): > 99.5 µM | IC50 (Genome polyprotein [2]): > 100 µM

C[C@H](C(=O)O)c1cccc(NC(=O)c2cc(Cl)cc(NC(=O)OCc3ccccc3)c2)c1
IC50 (Genome polyprotein [1]): 58.7 µM | IC50 (Genome polyprotein [2]): 24.7 µM and 27.2 µM

C[C@@H](N)c1cccc(NC(=O)c2cc(Cl)cc(NC(=O)OCc3ccccc3)c2)c1
IC50 (Genome polyprotein [1]): 81 µM | IC50 (Genome polyprotein [2]): > 100 µM

COc1cc(C#N)cc([C@H](Nc2ccc3c(c2)CNC3)C(=O)NCC(F)F)c1
IC50 (Genome polyprotein [1]): > 99.5 µM | IC50 (Genome polyprotein [2]): > 100 µM

O=Cc1cc(Cl)cc(NC(=O)OCc2ccccc2)c1
IC50 (Genome polyprotein [1]): > 99.5 µM | IC50 (Genome polyprotein [2]): > 100 µM

Clc1cc(CCc2cccc(-c3nn[nH]n3)c2)c2cn[nH]c2c1
IC50 (Genome polyprotein [1]): > 99.5 µM | IC50 (Genome polyprotein [2]): 99.1 µM

Cc1cc(N2CCC(NC(=O)c3cccc4c3CC(=O)N4)CC2)[nH]n1
IC50 (Genome polyprotein [1]): > 99.5 µM | IC50 (Genome polyprotein [2]): > 100 µM

Cc1nc(C2CC2)[nH]c1C(=O)Nc1cc(-c2cccnc2)ccn1
IC50 (Genome polyprotein [1]): > 99.5 µM | IC50 (Genome polyprotein [2]): > 100 µM

Cc1cc(NC(=O)c2cc(C3CC3)n(C)c2C)ncc1S(N)(=O)=O
IC50 (Genome polyprotein [1]): > 99.5 µM | IC50 (Genome polyprotein [2]): > 100 µM

CCOC(=O)N1CCC[C@H]1c1cccc(-c2ccc3[nH]c(C(=O)O)cc3c2)c1
IC50 (Genome polyprotein [1]): > 99.5 µM | IC50 (Genome polyprotein [2]): > 100 µM

COc1ccc(-c2cccc([C@@H](NC(=O)OCc3ccccc3)C(=O)Nc3cccc(CN)c3)c2)cn1
IC50 (Genome polyprotein [1]): > 99.5 µM | IC50 (Genome polyprotein [2]): > 100 µM

NS(=O)(=O)c1ccccc1N1CCN(Cc2c[nH]c3ccccc23)CC1
IC50 (Genome polyprotein [1]): > 99.5 µM | IC50 (Genome polyprotein [2]): > 100 µM

Reference: ChEMBL document CHEMBL5604063, “ASAP - DENV-2 NS2B-NS3 protease fluorescence dose response” (2024)
